In one assay the target is Adrenergic Receptor a1B (Homo sapiens, UniProt P35368). Nature of the assay: Adrenergic Receptor a1B ANT. From the text: (§1) ANT = antagonist (pIC50), AG = agonist (pEC50). pIC50 and pEC50 are the negative logarithms10 of IC50 and EC50, respectively. Click here for file
The next assay deals with Adrenergic Receptor b2 (Homo sapiens, UniProt P07550). Nature of the assay: Adrenergic Receptor b2 AG. To be noted: agonist; read-out: pEC50 Adrenergic Receptor b2 AG (converted).
Chain of Adrenergic Receptor b2 (P07550 whole entry): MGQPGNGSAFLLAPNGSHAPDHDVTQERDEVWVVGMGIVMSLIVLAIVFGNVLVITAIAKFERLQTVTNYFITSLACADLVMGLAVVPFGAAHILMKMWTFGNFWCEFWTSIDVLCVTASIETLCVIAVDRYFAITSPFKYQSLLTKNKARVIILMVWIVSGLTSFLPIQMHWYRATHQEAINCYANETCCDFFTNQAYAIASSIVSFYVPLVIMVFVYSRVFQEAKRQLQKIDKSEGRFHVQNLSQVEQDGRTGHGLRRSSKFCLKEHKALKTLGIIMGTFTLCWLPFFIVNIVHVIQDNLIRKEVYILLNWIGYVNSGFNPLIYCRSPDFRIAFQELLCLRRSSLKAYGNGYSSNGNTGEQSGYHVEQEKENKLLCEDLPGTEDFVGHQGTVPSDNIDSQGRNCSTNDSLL
Excerpt: as §1

In the next assay the target is Dopamin Receptor D2 (Homo sapiens, UniProt P14416). Put plainly: Dopamin receptor D2 ANT. The note with it: antagonist; read-out: pIC50 Dopamin receptor D2 ANT (converted).
Chain of Dopamin Receptor D2 (P14416 whole entry): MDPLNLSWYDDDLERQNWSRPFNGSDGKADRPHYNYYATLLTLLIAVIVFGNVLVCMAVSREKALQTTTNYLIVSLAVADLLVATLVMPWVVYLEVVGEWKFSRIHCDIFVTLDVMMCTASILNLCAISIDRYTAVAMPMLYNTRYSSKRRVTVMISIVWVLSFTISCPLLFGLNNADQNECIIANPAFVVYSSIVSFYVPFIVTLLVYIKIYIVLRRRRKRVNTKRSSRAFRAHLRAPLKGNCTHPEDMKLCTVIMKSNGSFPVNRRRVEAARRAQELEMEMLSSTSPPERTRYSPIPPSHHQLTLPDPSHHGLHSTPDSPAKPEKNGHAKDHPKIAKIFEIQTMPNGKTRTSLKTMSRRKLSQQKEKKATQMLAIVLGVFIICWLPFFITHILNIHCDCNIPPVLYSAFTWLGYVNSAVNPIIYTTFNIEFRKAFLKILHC
Excerpt: as §1

Assay [1] has as its target Lymphocyte-specific Tyrosine Kinase (Homo sapiens, UniProt P06239). Nature of the assay: Lymphocyte-specific Tyrosine Kinase ANT. Type of assay: biochemical. To be noted: antagonist; read-out: pIC50 Lymphocyte-specific Tyrosine Kinase ANT (converted).
Excerpt: as §1

Another assay deals with Monoamine Oxidase B (Homo sapiens, UniProt P27338). Nature of the assay: Monoamine Oxidase B ANT. In kind it is biochemical. To be noted: antagonist; read-out: pIC50 Monoamine Oxidase B ANT (converted).
Chain of Monoamine Oxidase B (P27338 whole entry): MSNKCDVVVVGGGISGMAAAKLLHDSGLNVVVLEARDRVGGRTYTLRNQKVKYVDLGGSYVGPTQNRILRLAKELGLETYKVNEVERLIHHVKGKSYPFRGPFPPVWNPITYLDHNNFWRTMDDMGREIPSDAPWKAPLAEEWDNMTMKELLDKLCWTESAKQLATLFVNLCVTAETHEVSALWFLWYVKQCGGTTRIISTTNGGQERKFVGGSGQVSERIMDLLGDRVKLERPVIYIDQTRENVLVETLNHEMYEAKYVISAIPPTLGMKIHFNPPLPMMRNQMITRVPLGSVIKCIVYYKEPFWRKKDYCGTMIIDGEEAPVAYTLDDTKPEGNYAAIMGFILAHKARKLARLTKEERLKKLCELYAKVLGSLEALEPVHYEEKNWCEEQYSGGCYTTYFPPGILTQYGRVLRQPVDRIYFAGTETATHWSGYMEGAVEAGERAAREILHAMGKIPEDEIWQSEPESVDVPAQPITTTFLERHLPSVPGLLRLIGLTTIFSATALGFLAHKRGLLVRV
Excerpt: as §1

For assay [2], the target named is T1, Muscarinic Receptor M1 (Homo sapiens, UniProt P11229).
T1 sequence (P11229 1-460): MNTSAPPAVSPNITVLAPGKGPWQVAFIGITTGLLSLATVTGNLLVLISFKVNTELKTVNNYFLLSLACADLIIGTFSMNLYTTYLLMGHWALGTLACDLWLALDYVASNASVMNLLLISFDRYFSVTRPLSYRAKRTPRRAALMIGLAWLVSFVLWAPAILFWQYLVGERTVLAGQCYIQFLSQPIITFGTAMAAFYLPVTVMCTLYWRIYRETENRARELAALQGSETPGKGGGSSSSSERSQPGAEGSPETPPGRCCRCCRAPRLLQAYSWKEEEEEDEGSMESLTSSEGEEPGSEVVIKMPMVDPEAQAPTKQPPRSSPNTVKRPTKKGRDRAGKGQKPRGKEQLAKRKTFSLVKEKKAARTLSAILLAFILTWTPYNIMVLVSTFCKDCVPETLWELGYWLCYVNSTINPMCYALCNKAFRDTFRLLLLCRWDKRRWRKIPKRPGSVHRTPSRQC
Put plainly: Muscarinic Receptor M1 AG. To be noted: agonist; read-out: pEC50 Muscarinic Receptor M1 AG (converted).
Excerpt: as §1

In assay [3] the target is T1, Muscarinic Receptor M1. Put plainly: Muscarinic Receptor M1 ANT. The note with it: antagonist; read-out: pIC50 Muscarinic Receptor M1 ANT (converted).
Excerpt: as §1

The target of assay [4] is Norepinephrin Transporter (Homo sapiens, UniProt P23975). Nature of the assay: Norepinephrin Transporter ANT. The note with it: antagonist; read-out: pIC50 Norepinephrin Transporter ANT (converted).
Chain of Norepinephrin Transporter (P23975 whole entry): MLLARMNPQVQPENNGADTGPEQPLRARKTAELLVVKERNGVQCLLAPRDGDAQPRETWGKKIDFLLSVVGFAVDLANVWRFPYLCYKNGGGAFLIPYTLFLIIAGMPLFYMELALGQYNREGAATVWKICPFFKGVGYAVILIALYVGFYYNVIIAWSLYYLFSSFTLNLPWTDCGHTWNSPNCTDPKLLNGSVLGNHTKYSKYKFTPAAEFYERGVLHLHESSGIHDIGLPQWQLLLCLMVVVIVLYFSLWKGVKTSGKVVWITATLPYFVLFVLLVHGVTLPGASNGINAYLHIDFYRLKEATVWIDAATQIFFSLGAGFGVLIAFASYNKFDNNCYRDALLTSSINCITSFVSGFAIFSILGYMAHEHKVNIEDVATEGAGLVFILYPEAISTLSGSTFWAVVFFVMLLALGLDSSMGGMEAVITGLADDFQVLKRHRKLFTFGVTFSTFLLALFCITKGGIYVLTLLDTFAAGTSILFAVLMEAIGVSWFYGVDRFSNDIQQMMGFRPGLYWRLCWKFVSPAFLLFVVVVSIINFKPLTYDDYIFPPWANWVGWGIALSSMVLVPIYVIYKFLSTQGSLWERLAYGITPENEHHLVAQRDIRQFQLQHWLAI
Excerpt: as §1

For the next assay, the target named is Opioid Receptor k (Homo sapiens, UniProt P41145). Put plainly: Opioid Receptor k ANT. The note with it: antagonist; read-out: pIC50 Opioid Receptor k ANT (converted).
Chain of Opioid Receptor k (P41145 whole entry): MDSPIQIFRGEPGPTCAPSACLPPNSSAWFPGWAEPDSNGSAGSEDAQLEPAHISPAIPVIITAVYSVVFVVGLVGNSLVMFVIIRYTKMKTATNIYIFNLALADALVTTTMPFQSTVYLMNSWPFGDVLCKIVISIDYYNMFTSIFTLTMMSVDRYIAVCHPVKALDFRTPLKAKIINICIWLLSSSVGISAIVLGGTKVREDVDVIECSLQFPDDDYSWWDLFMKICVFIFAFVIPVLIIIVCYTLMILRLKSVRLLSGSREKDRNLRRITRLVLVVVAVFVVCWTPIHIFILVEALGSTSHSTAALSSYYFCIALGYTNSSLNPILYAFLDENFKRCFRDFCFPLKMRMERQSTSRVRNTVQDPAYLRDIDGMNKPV
Excerpt: as §1

The target in the next assay is Potassium Channel KCNQ1 (Homo sapiens, UniProt P51787). Nature of the assay: Potassium Channel KCNQ1 ANT. To be noted: antagonist; read-out: pIC50 Potassium Channel KCNQ1 ANT (converted).
Excerpt: as §1

The target of a further assay is Potassium Channel Kv1.5 (Homo sapiens, UniProt P22460). Put plainly: Potassium Channel Kv1.5 ANT. To be noted: antagonist; read-out: pIC50 Potassium Channel Kv1.5 ANT (converted).
Chain of Potassium Channel Kv1.5 (P22460 whole entry): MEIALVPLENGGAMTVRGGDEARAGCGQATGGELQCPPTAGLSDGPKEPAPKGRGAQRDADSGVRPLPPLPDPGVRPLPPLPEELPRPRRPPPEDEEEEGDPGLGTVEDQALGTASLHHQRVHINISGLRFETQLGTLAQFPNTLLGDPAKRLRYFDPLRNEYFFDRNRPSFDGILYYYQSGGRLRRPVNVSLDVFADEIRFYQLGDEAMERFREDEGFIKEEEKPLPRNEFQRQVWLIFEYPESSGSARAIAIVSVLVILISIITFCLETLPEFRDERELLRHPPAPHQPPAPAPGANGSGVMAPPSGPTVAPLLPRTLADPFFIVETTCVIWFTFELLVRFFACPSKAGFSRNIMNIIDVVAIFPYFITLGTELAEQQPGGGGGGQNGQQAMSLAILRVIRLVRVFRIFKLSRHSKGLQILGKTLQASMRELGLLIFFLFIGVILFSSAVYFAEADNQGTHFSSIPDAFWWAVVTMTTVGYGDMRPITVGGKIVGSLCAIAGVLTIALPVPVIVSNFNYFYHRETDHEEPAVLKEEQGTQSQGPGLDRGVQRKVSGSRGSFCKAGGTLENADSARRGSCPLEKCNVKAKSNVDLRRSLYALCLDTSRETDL
Excerpt: as §1

The target of the next assay is Pregnane X receptor (Homo sapiens, UniProt O75469). Put plainly: Pregnane X receptor AG. The note with it: agonist; read-out: pEC50 Pregnane X receptor AG (converted).
Chain of Pregnane X receptor (O75469 whole entry, species assumed): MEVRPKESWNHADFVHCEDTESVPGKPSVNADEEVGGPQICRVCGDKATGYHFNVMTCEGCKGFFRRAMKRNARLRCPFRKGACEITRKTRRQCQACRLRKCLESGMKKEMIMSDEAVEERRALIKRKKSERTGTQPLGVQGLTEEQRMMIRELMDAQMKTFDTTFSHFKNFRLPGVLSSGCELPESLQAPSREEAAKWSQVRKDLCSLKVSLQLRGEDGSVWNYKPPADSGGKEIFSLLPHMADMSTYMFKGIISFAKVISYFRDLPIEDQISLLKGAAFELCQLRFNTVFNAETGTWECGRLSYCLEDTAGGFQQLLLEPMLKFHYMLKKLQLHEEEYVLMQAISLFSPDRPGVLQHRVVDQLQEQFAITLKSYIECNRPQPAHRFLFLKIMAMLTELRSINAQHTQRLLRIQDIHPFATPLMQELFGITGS
Excerpt: as §1

The target in a further assay is Serotonin Receptor 5H1. Nature of the assay: Serotonin Receptor 5H1 ANT. The note with it: antagonist.
Excerpt: as §1

Assay [5] deals with T2, Serotonin Receptor 5HT2A (Homo sapiens, UniProt P28223). Nature of the assay: Serotonin Receptor 5HT2A AG. The note with it: agonist; read-out: pEC50 Serotonin Receptor 5HT2A AG (converted).
T2 sequence (P28223 whole entry): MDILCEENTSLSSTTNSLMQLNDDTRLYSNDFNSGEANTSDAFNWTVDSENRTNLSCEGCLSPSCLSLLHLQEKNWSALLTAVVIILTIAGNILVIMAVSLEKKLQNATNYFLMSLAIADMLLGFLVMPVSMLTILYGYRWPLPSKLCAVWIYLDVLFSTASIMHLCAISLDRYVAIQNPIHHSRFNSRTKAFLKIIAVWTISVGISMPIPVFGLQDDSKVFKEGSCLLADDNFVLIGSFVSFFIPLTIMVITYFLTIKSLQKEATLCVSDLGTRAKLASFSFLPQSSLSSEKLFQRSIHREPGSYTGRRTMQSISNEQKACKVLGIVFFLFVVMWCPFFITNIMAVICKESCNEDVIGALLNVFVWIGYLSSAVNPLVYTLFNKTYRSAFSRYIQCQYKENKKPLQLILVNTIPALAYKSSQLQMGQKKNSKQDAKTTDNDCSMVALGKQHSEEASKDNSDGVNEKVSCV
Excerpt: as §1

Assay [6] addresses T2, Serotonin Receptor 5HT2A. Put plainly: Serotonin Receptor 5HT2A ANT. To be noted: antagonist; read-out: pIC50 Serotonin Receptor 5HT2A ANT (converted).
Excerpt: as §1

Another assay deals with T3, Serotonin Receptor 5HT2C (Homo sapiens, UniProt P28335).
T3 sequence (P28335 33-458): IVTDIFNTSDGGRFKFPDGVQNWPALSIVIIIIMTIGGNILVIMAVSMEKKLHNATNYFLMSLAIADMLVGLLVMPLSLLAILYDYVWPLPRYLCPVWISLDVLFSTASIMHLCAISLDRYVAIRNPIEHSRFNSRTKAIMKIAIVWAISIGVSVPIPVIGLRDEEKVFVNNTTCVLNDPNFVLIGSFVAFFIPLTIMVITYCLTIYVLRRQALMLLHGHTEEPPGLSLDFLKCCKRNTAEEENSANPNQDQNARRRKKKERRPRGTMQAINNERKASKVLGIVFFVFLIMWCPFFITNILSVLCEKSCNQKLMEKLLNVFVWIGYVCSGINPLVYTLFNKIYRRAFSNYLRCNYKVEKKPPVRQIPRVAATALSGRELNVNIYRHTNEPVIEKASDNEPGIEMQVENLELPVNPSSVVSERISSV
Nature of the assay: Serotonin Receptor 5HT2C AG. The note with it: agonist; read-out: pEC50 Serotonin Receptor 5HT2C AG (converted).
Excerpt: as §1

The next assay addresses T4, Serotonin Receptor 5HT3 (Homo sapiens, UniProt P46098).
T4 sequence (P46098 24-478): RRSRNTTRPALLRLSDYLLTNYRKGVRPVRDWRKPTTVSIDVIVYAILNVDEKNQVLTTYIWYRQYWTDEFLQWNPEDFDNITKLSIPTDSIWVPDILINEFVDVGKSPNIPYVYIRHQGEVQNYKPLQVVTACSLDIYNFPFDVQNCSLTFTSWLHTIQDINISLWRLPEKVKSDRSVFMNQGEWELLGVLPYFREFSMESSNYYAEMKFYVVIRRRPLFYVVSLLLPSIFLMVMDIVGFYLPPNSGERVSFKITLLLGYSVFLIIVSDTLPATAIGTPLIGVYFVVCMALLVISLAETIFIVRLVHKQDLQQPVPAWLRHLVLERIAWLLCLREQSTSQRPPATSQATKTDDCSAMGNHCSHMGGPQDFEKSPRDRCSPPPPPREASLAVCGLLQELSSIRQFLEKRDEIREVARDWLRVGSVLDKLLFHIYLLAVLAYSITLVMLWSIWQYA
Put plainly: Serotonin Receptor 5HT3 AG. To be noted: agonist; read-out: pEC50 Serotonin Receptor 5HT3 AG (converted).
Excerpt: as §1

Another assay concerns the target Serotonin Transporter (Homo sapiens, UniProt P31645). Nature of the assay: Serotonin Transporter ANT. To be noted: antagonist; read-out: pIC50 Serotonin Transporter ANT (converted).
Excerpt: as §1

Where two headings read alike, the source gives them in different places.

Chain of Adrenergic Receptor a1B (P35368 whole entry): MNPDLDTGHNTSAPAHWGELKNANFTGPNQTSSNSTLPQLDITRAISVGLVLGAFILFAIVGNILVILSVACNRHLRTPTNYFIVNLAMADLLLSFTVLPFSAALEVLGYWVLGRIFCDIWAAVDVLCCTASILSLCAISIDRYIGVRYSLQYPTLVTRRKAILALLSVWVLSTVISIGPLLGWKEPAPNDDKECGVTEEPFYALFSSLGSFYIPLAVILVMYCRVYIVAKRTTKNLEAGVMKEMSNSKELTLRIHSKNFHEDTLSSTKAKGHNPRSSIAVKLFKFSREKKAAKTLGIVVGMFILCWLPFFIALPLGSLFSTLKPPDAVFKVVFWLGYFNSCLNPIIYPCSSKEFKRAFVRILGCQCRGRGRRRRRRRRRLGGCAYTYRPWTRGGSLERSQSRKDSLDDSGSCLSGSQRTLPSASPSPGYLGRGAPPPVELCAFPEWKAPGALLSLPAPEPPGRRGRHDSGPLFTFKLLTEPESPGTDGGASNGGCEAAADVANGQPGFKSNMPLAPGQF
Chain of Lymphocyte-specific Tyrosine Kinase (P06239 whole entry): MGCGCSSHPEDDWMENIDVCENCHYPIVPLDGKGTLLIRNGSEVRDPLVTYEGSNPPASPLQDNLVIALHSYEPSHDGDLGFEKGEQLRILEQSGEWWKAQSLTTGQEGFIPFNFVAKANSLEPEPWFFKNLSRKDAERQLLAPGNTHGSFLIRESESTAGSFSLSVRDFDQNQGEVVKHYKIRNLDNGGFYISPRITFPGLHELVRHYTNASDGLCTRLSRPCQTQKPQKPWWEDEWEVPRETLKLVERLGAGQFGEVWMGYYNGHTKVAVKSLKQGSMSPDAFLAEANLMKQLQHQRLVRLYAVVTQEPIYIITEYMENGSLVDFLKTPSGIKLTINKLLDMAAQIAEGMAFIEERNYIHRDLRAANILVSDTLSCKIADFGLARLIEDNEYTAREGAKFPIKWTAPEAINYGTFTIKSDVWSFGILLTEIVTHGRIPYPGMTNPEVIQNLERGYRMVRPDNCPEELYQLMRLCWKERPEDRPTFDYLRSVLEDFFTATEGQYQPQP

For the compound `COc1ncc(-c2ccc3c(Nc4cc(C(=O)O)cc(C5CCCC5)c4)c(S(=O)(=O)NC4CC4)cnc3c2)c(OC)n1` [Compound 2], the IC50 on Adrenergic Receptor a1B (antagonist, read-out: pIC50 Adrenergic Receptor a1B ANT (converted)) was 31.6 µM; on Dopamin Receptor D2, 100 µM; in assay [1], 31.6 µM; at Monoamine Oxidase B, 15.8 µM; at Muscarinic Receptor M1 [3], 15.8 µM; in assay [4], 100 µM. Besides, the IC50 was 50.1 µM on Opioid Receptor k; 25.1 µM at Potassium Channel KCNQ1; 50.1 µM at Potassium Channel Kv1.5; 31.6 µM at Serotonin Receptor 5HT2A [6]; 100 µM at Serotonin Transporter. Further, the EC50 was 31.6 µM on Adrenergic Receptor b2; 15.8 µM at Muscarinic Receptor M1 [2]; 50.1 µM on Pregnane X receptor; 39.8 µM at Serotonin Receptor 5HT2A [5]; 39.8 µM on Serotonin Receptor 5HT2C; 39.8 µM at Serotonin Receptor 5HT3. Further, the “pIC50 Serotonin Receptor 5H1 ANT” value on Serotonin Receptor 5H1 amounted to 4.4.

`COc1ncc(-c2ccc3c(Nc4cc(Oc5cc(F)cc(F)c5)cc(C(=O)O)c4)c(S(=O)(=O)NC4CC4)cnc3c2)c(OC)n1` [Compound 1]: the IC50 on Adrenergic Receptor a1B is 12.6 µM; on Dopamin Receptor D2, 39.8 µM; in [1], 31.6 µM; on Monoamine Oxidase B, 6.31 µM; on Muscarinic Receptor M1 [3], 15.8 µM; in assay [4], 100 µM. Further, the IC50 is 31.6 µM at Opioid Receptor k; 25.1 µM on Potassium Channel KCNQ1; 50.1 µM at Potassium Channel Kv1.5; 39.8 µM at Serotonin Receptor 5HT2A [6]; 100 µM at Serotonin Transporter. In addition, the EC50 was 31.6 µM on Adrenergic Receptor b2; 15.8 µM at Muscarinic Receptor M1 [2]; 50.1 µM on Pregnane X receptor; 39.8 µM at Serotonin Receptor 5HT2A [5]; 39.8 µM on Serotonin Receptor 5HT2C; 50.1 µM at Serotonin Receptor 5HT3. In addition, the “pIC50 Serotonin Receptor 5H1 ANT” value on Serotonin Receptor 5H1 was found to be 4.7.

The record behind these values is paper PMC4178217, “Quinoline 3-sulfonamides inhibit lactate dehydrogenase A and reverse aerobic glycolysis in cancer cells” (Cancer & Metabolism, 2013).
